system: prion infected mice; experiment: not given; details: cited from earlier work

| Compound | neuroprotective effect and clinical signs of disease |
| --- | --- |
| Cn1cc(-c2ccc3c(c2)CCN3C(=O)Cc2cccc(C(F)(F)F)c2)c2c(N)ncnc21 [GSK2606414, 7-methyl-5-(1-{[3-(trifluoromethyl)phenyl]acetyl}-2,3-dihydro-1H-indol-5-yl)-7H-pyrrolo[2,3-d]pyrimidin-4-amine] | provide a neuroprotective effect and prevent clinical signs of disease |

target: T1, PERK (Homo sapiens, UniProt Q9NZJ5); experiment: PERK enzyme assay (HTRF); format: biochemical; details: PERK Enzyme (500 μM ATP) IC50; at least one experimental run; read-out: PERK Activity
T1 sequence (Q9NZJ5 30-1116): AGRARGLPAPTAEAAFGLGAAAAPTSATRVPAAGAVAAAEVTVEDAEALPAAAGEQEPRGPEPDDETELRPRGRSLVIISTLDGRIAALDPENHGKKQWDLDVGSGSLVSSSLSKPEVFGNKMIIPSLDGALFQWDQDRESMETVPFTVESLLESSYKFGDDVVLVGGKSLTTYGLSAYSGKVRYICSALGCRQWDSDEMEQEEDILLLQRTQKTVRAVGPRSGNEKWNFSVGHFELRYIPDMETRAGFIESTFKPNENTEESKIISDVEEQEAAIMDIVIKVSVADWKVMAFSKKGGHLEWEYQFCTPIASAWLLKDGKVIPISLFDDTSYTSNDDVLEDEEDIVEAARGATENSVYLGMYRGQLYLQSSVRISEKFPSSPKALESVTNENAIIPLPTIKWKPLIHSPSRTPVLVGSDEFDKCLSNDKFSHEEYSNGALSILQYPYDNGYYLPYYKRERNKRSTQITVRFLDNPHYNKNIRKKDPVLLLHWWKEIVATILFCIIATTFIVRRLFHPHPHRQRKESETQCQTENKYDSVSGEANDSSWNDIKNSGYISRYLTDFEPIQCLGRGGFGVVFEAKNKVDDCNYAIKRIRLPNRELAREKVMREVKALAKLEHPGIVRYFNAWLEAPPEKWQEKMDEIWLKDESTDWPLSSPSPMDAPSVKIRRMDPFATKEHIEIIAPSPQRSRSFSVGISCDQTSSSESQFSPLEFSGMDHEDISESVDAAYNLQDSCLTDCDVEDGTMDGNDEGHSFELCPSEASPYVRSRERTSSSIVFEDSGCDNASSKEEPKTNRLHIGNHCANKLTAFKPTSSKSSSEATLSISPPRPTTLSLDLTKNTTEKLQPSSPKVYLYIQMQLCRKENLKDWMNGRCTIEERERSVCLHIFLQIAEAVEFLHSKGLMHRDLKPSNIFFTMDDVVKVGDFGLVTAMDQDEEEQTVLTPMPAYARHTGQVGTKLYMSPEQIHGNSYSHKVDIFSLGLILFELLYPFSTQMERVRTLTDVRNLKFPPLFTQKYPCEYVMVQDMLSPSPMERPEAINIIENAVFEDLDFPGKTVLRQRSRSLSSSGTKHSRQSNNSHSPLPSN
In short: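 GST-PERK (0.75 nM final) pre-incubated 30–60 min with compound (≤1% DMSO) in HEPES pH 7.5/CHAPS/MgCl2/DTT, then 500 μM ATP and 40 nM biotin-eIF2α added for 60 min. EDTA quench; HTRF detection of phospho-eIF2α (Eu anti-rabbit/streptavidin-APC) read after 2 h; IC50 from concentration series.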

| Compound | IC50 [nM] |
| --- | --- |
| CN1C(=O)N(c2ccc(-c3cn(C4CC4)c4ncnc(N)c34)c(F)c2)CC1c1ccc(F)c(F)c1 (single isomer, unassigned) [Example 117, 1-(4-(4-amino-7-cyclopropyl-7H-pyrrolo[2,3-d]pyrimidin-5-yl)-3-fluorophenyl)-4-(3,4-difluorophenyl)-3-methylimidazolidin-2-one] | 100 to 1000 |
| Cc1nc(N)c2c(-c3ccc(N4CC(c5ccc(F)cc5F)N(C)C4=O)cc3F)c(C)n(C)c2n1 (single isomer, unassigned) [Example 11, 1-(4-(4-amino-2,6,7-trimethyl-7H-pyrrolo[2,3-d]pyrimidin-5-yl)-3-fluorophenyl)-4-(2,4-difluorophenyl)-3-methylimidazolidin-2-one] | < 100 |
| CN1C(=O)N(c2ccc(-c3cn(C4CC4)c4ncnc(N)c34)c(F)c2)CC1c1ccc(Cl)cc1 (single isomer, unassigned) [Example 168, 1-(4-(4-amino-7-cyclopropyl-7H-pyrrolo[2,3-d]pyrimidin-5-yl)-3-fluorophenyl)-4-(4-chlorophenyl)-3-methylimidazolidin-2-one] | < 100 |
| 1-(4-(4-amino-2,7-dimethyl-7H- pyrrolo[2,3-d]pyrimidin-5-yl)-3- fluorophenyl)-4-(2,4-difluorophenyl)- 3-trifluoroethyl)imidazolidin-2-one [Example 83] | 100 to 1000 |
| CN1C(=O)N(c2ccc(-c3cn(C)c4ncnc(N)c34)c(F)c2)CC1c1cc(F)ccc1F (single isomer, unassigned) [Example 151, 1-(4-(4-amino-7-methyl-7H-pyrrolo[2,3-d]pyrimidin-5-yl)-3-fluorophenyl)-4-(2,5-difluorophenyl)-3-methylimidazolidin-2-one] | 100 to 1000 |
| CN1C(=O)N(c2ccc(-c3cn(C)c4ncnc(N)c34)c(F)c2)CC1c1cc(F)cc(C(F)(F)F)c1 (stereo not drawn) [Example 84, 1-(4-(4-amino-7-methyl-7H-pyrrolo[2,3-d]pyrimidin-5-yl)-3-fluorophenyl)-4-(3-fluoro-5-(trifluoromethyl)phenyl)-3-methylimidazolidin-2-one] | 100 to 1000 |
| CN1C(=O)N(c2ccc(-c3cn(C)c4ncnc(N)c34)c(F)c2)CC1c1ccc2c(c1)CCO2 (stereo not drawn) [Example 147, 1-(4-(4-amino-7-methyl-7H-pyrrolo[2,3-d]pyrimidin-5-yl)-3-fluorophenyl)-4-(2,3-dihydrobenzofuran-5-yl)-3-methylimidazolidin-2-one] | < 100 |
| Cn1cc(-c2ccc(N3CC(c4cc(F)cc(F)c4)CC3=O)nc2)c2c(N)ncnc21 (stereo not drawn) [Example 32, 1-(5-(4-amino-7-methyl-7H-pyrrolo[2,3-d]pyrimidin-5-yl)pyridin-2-yl)-4-(3,5-difluorophenyl)pyrrolidin-2-one] | 100 to 1000 |
